The values below come from patent US20240009190A1, “COMBINATION CANCER THERAPY USING CHK INHIBITOR” (SHANGHAI HUAYU BIOTECHNOLOGY CO., LTD., priority 2020, published 2024).

The nature of data set [1]: Mice body weight in CT-26 WT tumor model (Example 2). Format: in vivo, BALB/c female mice. The following applies: for Average body weight: compounds 15 mg/kg tail vein once per day, anti-m-PD-1 10 mg/kg IP once every five days; for average mice weight, tumor weight deducted: compounds 15 mg/kg, anti-m-PD-1 10 mg/kg. The protocol: (§1) Mice were observed every day for their physical conditions and activities, and mice body weight and tumor volume were measured every Tuesday, Thursday and Sunday. The tumor volume (V) was calculated as (length×width^2)/2.
(§2) At Day 23, mice were subject to euthanasia, from which tumors were collected, weighed and photographed. Mice body weights, tumor sizes and tumor weights were analyzed using the t-test in SPSS, and group differences were deemed statistically significant when the p-value was 0.05 or less. Tumor weight based tumor growth inhibition (TGI) and Zheng-Jun Jin's Q value were calculated.

The next data set concerns CT-26 WT cells. The data set is described as follows: CT-26 WT subcutaneous tumor model, CHK inhibitors at lower dose with anti-m-PD-1 antibody (Example 2). Format: in vivo, BALB/c female mice. The conditions noted are these: for Average tumor size: compounds 15 mg/kg tail vein once per day, anti-m-PD-1 10 mg/kg IP once every five days; for Tumor weight based TGI: compounds 15 mg/kg, anti-m-PD-1 10 mg/kg; for Tumor weight, Average: group average of 8 mice; for Tumor weight, Mouse no. 1 / Tumor weight, Mouse no. 2 / Tumor weight, Mouse no. 3 / Tumor weight, Mouse no. 4 / Tumor weight, Mouse no. 5 / Tumor weight, Mouse no. 6 / Tumor weight, Mouse no. 7 / Tumor weight, Mouse no. 8: individual mouse. The protocol:
The anti-tumor effect of Compound 6 at a lower dose in combination with an anti-PD-1 antibody was studied in this Example. Further, three compounds obtained by structurally modifying Compound 6, i.e., Compound 6-1, Compound 6-2 and Compound 6-3, were tested alone or in combination with an anti-PD-1 antibody for their anti-tumor effects.
At Day 0, 105 BALB/c female mice, 4-5 weeks old, were subcutaneously injected with about 200.0 μL of the CT-26 WT cell medium containing about 5×10^5 cells, respectively.
At Day 5, 80 tumor-bearing mice were randomly assigned to ten groups according to their body weights, 8 mice per group. The remaining mice were subject to euthanasia.
The ten groups of animals were administered with an anti-m-PD-1 antibody (BE0146, BioXcell) in PBS (21-040-CVR, BioXcell) at 1.0 mg/mL, Compound 6 in saline at 1.5 mg/mL, Compound 6-1 in saline at 1.5 mg/mL, Compound 6-2 in saline at 1.5 mg/mL, Compound 6-3 in saline at 1.5 mg/mL, the anti-m-PD-1 antibody+Compound 6, the anti-m-PD-1 antibody+Compound 6-1, the anti-m-PD-1 antibody+Compound 6-2, the anti-m-PD-1 antibody+Compound 6-3, and the control vehicle (saline), respectively, at doses shown in Table 3 below.
as §1, §2

The subject of the next data set is MC38 cells. Nature of the data set: MC38 tumor model in transgenic mice, Compound 6, anti-PD-1 antibody and gemcitabine (Example 5). The following applies: Day 23; Compound 6 15 mg/kg IP QD × 14; GEM 20 mg/kg IV QW × 2; anti-PD-1 10 mg/kg IP Q5D × 3. Format: in vivo, C57BL/6-Pdcd1^em(hPDCD1) Cd274^em1(hPD-L1)/Smoc mice. The protocol:
MC38 cells were maintained at 37° C. in 5% CO2 in RPMI 1640 medium (10-040-CV, Corning cellgro) supplemented with 10% FBS (10270-106, GIBCO) and used before the 10th subculture.
Female C57BL/6-Pdcd1^em(hPDCD1) Cd274^em1(hPD-L1)/Smoc mice (Shanghai Model Organisms), 20-25 g, were subcutaneously injected with about 5×10^5 MC38 cells, respectively.
When tumors grew to 50-70 mm^3, these mice were randomly assigned to 8 groups, 8 mice per group, this day was at Day 9. From Day 9, the animals were administered with gemcitabine (GEM) in saline at 20 mg/mL, an anti-PD-1 antibody (Toripalimab, Shanghai Junshi Biosciences Co., Ltd. China) in saline at 40 mg/mL, Compound 6 in saline at 8 mg/mL, Compound 6+gemcitabine, gemcitabine+anti-PD-1, Compound 6+anti-PD-1, Compound 6+gemcitabine+anti-PD-1, and the control vehicle (5% GS), respectively, according to the dosing regimen shown in Table 11 below.
Mice were observed every day for their physical conditions and activities, and mice body weight and tumor volume were measured every other day. The tumor volume (V) was calculated as (length×width^2)/2.
Mice body weights, and tumor sizes were analyzed using the t-test in SPSS, and group differences were deemed statistically significant when the p-value was 0.05 or less.
Tumor growth inhibition (TGI) was calculated by the following formula. Tumor growth inhibition=(average tumor size in vehicle group-average tumor size in administration group)/average tumor size in vehicle group×100%
Zheng-Jun Jin's Q value was calculated as described above.

In the case of `NC(=O)c1nnc(OC2CCCNC2)c2cc(-c3cccc(F)c3)sc12` (stereo not shown) [Compound 6-1, 2-(3-fluorophenyl)-4-(3-piperidinyloxy)-thieno[2,3-d]pyridazine-7-carboxylic acid amide], the Average body weight in data set [1] (Day 9) came out at 16.29 g; in data set [1] (Day 10), 16.75 g; in data set [1] (Day 12), 16.89 g; in data set [1] (Day 14), 17.18 g; in data set [1] (Day 16), 17.79 g; in data set [1] (Day 18), 17.99 g. In addition, the Average body weight was 18.32 g in data set [1] (Day 20), 18.57 g in data set [1] (Day 22) and 19.31 g in data set [1] (Day 23). In addition, the “average mice weight, tumor weight deducted” value (from here on “average mice weight”) in data set [1] (Day 23) was found to be 17.77 g. In addition, the Average tumor size came to 171.59 mm^3 with CT-26 WT cells (Day 9); 257.64 mm^3 in the data set with CT-26 WT cells (Day 10); 367.95 mm^3 with CT-26 WT cells (Day 12); 550.08 mm^3 in the data set with CT-26 WT cells (Day 14); 677.06 mm^3 with CT-26 WT cells (Day 16); 780.61 mm^3 in the data set on CT-26 WT cells (Day 18). The Average tumor size in the data set with CT-26 WT cells (Day 20) is on record as 972.02 mm^3; in the data set on CT-26 WT cells (Day 22), 1062.24 mm^3; with CT-26 WT cells (Day 23) it was 1179.61 mm^3. In addition, the “Tumor weight based TGI” value in the data set with CT-26 WT cells (Day 23) is 45.63%. Besides, the “Tumor weight, Average” value in the data set on CT-26 WT cells (Day 23) worked out at 1.54 g. Also, the “Tumor weight, Mouse no. 1” value with CT-26 WT cells (Day 23) is recorded as 0.87 g. For the same compound, the “Tumor weight, Mouse no. 2” value in the data set with CT-26 WT cells (Day 23) was determined as 1.19 g. Besides, in the data set with CT-26 WT cells (Day 23), the “Tumor weight, Mouse no. 3” value stood at 2.32 g. The “Tumor weight, Mouse no. 4” value in the data set on CT-26 WT cells (Day 23) was determined as 2.87 g. The “Tumor weight, Mouse no. 5” value with CT-26 WT cells (Day 23) is recorded as 1.58 g. Also, the “Tumor weight, Mouse no. 6” value in the data set with CT-26 WT cells (Day 23) is listed as 1.68 g. The “Tumor weight, Mouse no. 7” value in the data set with CT-26 WT cells (Day 23) came to 1.31 g. In addition, the “Tumor weight, Mouse no. 8” value with CT-26 WT cells (Day 23) came out at 0.49 g.

Turning to `NC(=O)c1nnc(SC2CCCNC2)c2cc(-c3cccc(F)c3)sc12` (stereo not shown) [Compound 6-2, 2-(3-fluorophenyl)-4-(3-piperidinylthio)-thieno[2,3-d]pyridazine-7-carboxylic acid amide], the Average body weight in data set [1] (Day 9) turned out to be 16.45 g; in data set [1] (Day 10), 16.69 g; in data set [1] (Day 12), 16.78 g; in data set [1] (Day 14), 17.22 g; in data set [1] (Day 16), 17.62 g; in data set [1] (Day 18), 18.05 g. The Average body weight is listed as 18.67 g in data set [1] (Day 20), 19.14 g in data set [1] (Day 22) and 19.63 g in data set [1] (Day 23). Further, the “average mice weight” value in data set [1] (Day 23) was found to be 18.04 g. The Average tumor size in the data set on CT-26 WT cells (Day 9) came out at 196.37 mm^3; in the data set with CT-26 WT cells (Day 10), 278.84 mm^3; in the data set on CT-26 WT cells (Day 12) it was 391.83 mm^3; in the data set on CT-26 WT cells (Day 14), 570.64 mm^3; in the data set with CT-26 WT cells (Day 16) it was 698.18 mm^3; in the data set on CT-26 WT cells (Day 18), 805.13 mm^3. In addition, the values for the Average tumor size in the data set on CT-26 WT cells (Day 20), with CT-26 WT cells (Day 22) and in the data set with CT-26 WT cells (Day 23) were 974.34 mm^3, 1196.22 mm^3 and 1334.63 mm^3, respectively. Further, the “Tumor weight based TGI” value in the data set with CT-26 WT cells (Day 23) is listed as 43.82%. For the same compound, the “Tumor weight, Average” value in the data set with CT-26 WT cells (Day 23) was found to be 1.59 g. Further, the “Tumor weight, Mouse no. 1” value in the data set on CT-26 WT cells (Day 23) stood at 0.84 g. In addition, the “Tumor weight, Mouse no. 2” value in the data set with CT-26 WT cells (Day 23) is given as 1.58 g. In addition, the “Tumor weight, Mouse no. 3” value in the data set on CT-26 WT cells (Day 23) was 0.84 g. Besides, in the data set with CT-26 WT cells (Day 23), the “Tumor weight, Mouse no. 4” value was 2.56 g. Moreover, the “Tumor weight, Mouse no. 5” value in the data set on CT-26 WT cells (Day 23) worked out at 1.78 g. In addition, the “Tumor weight, Mouse no. 6” value in the data set with CT-26 WT cells (Day 23) came to 2.12 g. Moreover, the “Tumor weight, Mouse no. 7” value with CT-26 WT cells (Day 23) came to 0.89 g. Moreover, the “Tumor weight, Mouse no. 8” value in the data set on CT-26 WT cells (Day 23) turned out to be 2.11 g.

Take `NC(=O)c1nnc(CC2CCCNC2)c2cc(-c3cc(Cl)cc(Cl)c3)sc12` (stereo not shown) [Compound 6-3, 2-(3,5-dichlorophenyl)-4-(3-piperidinemethyl)-thieno[2,3-d]pyridazinyl-7-formamide]: the Average body weight in data set [1] (Day 9) turned out to be 15.99 g; in data set [1] (Day 10), 16.25 g; in data set [1] (Day 12) it was 16.51 g; in data set [1] (Day 14), 17.26 g; in data set [1] (Day 16), 17.91 g; in data set [1] (Day 18), 18.13 g. The Average body weight was 18.75 g in data set [1] (Day 20), 19.38 g in data set [1] (Day 22) and 20.06 g in data set [1] (Day 23). In addition, in data set [1] (Day 23), the “average mice weight” value came to 18.16 g. The Average tumor size with CT-26 WT cells (Day 9) is recorded as 162.03 mm^3; with CT-26 WT cells (Day 10), 282.00 mm^3; in the data set on CT-26 WT cells (Day 12) it was 417.93 mm^3; with CT-26 WT cells (Day 14), 527.17 mm^3; with CT-26 WT cells (Day 16) it was 718.27 mm^3; in the data set with CT-26 WT cells (Day 18), 828.07 mm^3. For the same compound, the Average tumor size in the data set with CT-26 WT cells (Day 20) stood at 1072.57 mm^3; in the data set on CT-26 WT cells (Day 22), 1334.48 mm^3; with CT-26 WT cells (Day 23), 1558.87 mm^3. Further, the “Tumor weight based TGI” value in the data set on CT-26 WT cells (Day 23) was 32.73%. The “Tumor weight, Average” value in the data set with CT-26 WT cells (Day 23) stood at 1.90 g. For the same compound, in the data set on CT-26 WT cells (Day 23), the “Tumor weight, Mouse no. 1” value turned out to be 2.85 g. The “Tumor weight, Mouse no. 2” value in the data set on CT-26 WT cells (Day 23) is listed as 1.24 g. Also, the “Tumor weight, Mouse no. 3” value in the data set on CT-26 WT cells (Day 23) was found to be 2.76 g. Also, the “Tumor weight, Mouse no. 4” value with CT-26 WT cells (Day 23) is reported as 1.31 g. For the same compound, in the data set on CT-26 WT cells (Day 23), the “Tumor weight, Mouse no. 5” value is listed as 1.97 g. Besides, the “Tumor weight, Mouse no. 6” value with CT-26 WT cells (Day 23) is reported as 1.03 g. Besides, the “Tumor weight, Mouse no. 7” value in the data set with CT-26 WT cells (Day 23) was determined as 3.12 g. Moreover, the “Tumor weight, Mouse no. 8” value in the data set on CT-26 WT cells (Day 23) turned out to be 0.95 g.

With `Nc1ccn([C@@H]2O[C@H](CO)[C@@H](O)C2(F)F)c(=O)n1` [GEM, gemcitabine, reference compound], in the data set on MC38 cells, the “TGI based on tumor sizes” value is 30.02%.
